Test [1] concerns the target PI3Kγ (p110γ) Recombinant Human Protein (Homo sapiens (Human), UniProt P48736). Description: PI3K-γ scintillation proximity assay. The conditions noted are these: 20 μM PIP2, 2 μM ATP, 13 nM PI3Kγ, 120 min, room temperature. The format is biochemical. The text has this:
Example B. PI3K-γ Scintillation Proximity Assay
[γ-^33P]ATP (10 mCi/mL) and Wheat Germ Agglutinin (WGA) YSi SPA Scintillation Beads was purchased from PerkinElmer (Waltham, Mass.). Lipid kinase substrate, D-myo-Phosphatidylinositol 4,5-bisphosphate (PtdIns(4,5)P2)D (+)-sn-1,2-di-O-octanoylglyceryl, 3-O-phospho linked (PIP2), CAS 204858-53-7, was purchased from Echelon Biosciences (Salt Lake City, Utah). PI3Kγ (p110γ) Recombinant Human Protein was purchased from Life technology (Grand Island, N.Y.). ATP, MgCl2, DTT, EDTA, MOPS and CHAPS were purchased from SigmaAldrich (St. Louis, Mo.).
(§1) The kinase reaction was conducted in polystyrene 384-well Greiner Bio-one white plate from Thermo Fisher Scientific in a final volume of 25 μL. Inhibitors were first diluted serially in DMSO and added to the plate wells before the addition of other reaction components. The final concentration of DMSO in the assay was 2%. The PI3Kγ assay was carried out at room temperature in 20 mM MOPS, pH 6.7, 10 mM MgCl2, 5 mM DTT and CHAPS 0.03%. Reactions were initiated by the addition of ATP, the final reaction mixture consisted of 20 μM PIP2, 2 μM ATP, 0.5 μCi [γ-^33P] ATP, 13 nM PI3Kγ. Reactions were incubated for 120 min and terminated by the addition of 40 μL SPA beads suspended in quench buffer: 163 mM potassium phosphate pH 7.8, 20% glycerol, 25 mM EDTA. The final concentration of SPA beads is 1.0 mg/mL. After the plate sealing, plates were shaken overnight at room temperature and centrifuged at 1500 rpm for 10 min, the radioactivity of the product was determined by scintillation counting on Topcount (Perkin-Elmer). IC50 determination was performed by fitting the curve of percent of the solvent control activity versus the log of the inhibitor concentration using the GraphPad Prism 6.0 software.
(Scintillation proximity formats need no separation of bound from free tracer.)

Test [2] addresses PI3Kδ (p110δ/p85α) Recombinant Human Protein (Homo sapiens (Human), UniProt O00329). Description: PI3Kδ scintillation proximity assay. The format is biochemical. The conditions noted are these: 20 μM PIP2, 2 μM ATP, 3.4 nM PI3Kδ, 120 min, room temperature; read-out: PI3Kδ IC50. As to the method:
PI3Kδ Scintillation Proximity Assay
[γ-^33P]ATP (10 mCi/mL) and Wheat Germ Agglutinin (WGA) YSi SPA Scintillation Beads was purchased from PerkinElmer (Waltham, Mass.). […] PI3Kδ (p110δ/p85α) Recombinant Human Protein was purchased from Eurofins (St Charles, Mo.). ATP, MgCl2, DTT, EDTA, MOPS and CHAPS were purchased from SigmaAldrich (St. Louis, Mo.).
as §1, with “PI3Kδ” for “PI3Kγ”, “ATP, 13 nM PI3Kγ. Reactions were incubated for 120 min and terminated by the addition of 40 μL SPA beads suspended in quench buffer: 163 mM potassium phosphate pH 7.8, 20% glycerol, 25 mM EDTA.” left out, “(PerkinElmer).” for “(Perkin-Elmer).”

Test [3] deals with Phosphorylated Ribosomal Protein S6 (RPS6) in THP-1 cells. Description: THP-1 RPS6 ELISA assay. The format is cell-based, Human. The method, then:
Example A. THP-1 RPS6 ELISA Assay
To measure the Phosphorylated Ribosomal Protein S6 (RPS6) in cell lysates, THP-1 cells (Human Acute Monocytic Leukemia) are purchased from ATCC (Manassas, Va.) and maintained in RPMI with 10% FBS (Gibco/Life Technologies, Carlsbad, Calif.). For the assay, THP-1 cells are serum starved overnight in RPMI, then plated in RPMI (2×10^5 cells/well in 90 μL) into 96-well flat-bottom tissue culture treated plates (Corning, Corning, N.Y.), in the presence or absence of a concentration range of test compounds. Covered plates are incubated for 2 hours at 37° C., 5% CO2 then treated with or without 10 nM MCP-1 (MYBioSource, San Diego, Calif.) for 15 minutes at 37° C., 5% CO2. Plates are centrifuged at 1600 RPM and supernatants are removed. Cells are lysed in Lysis Buffer (Cell Signaling, Danvers, Mass.) with Protease Inhibitor (Calbiochem/EMD, Germany), PMSF (Sigma, St Louis Mo.), HALTS (Thermo Fisher, Rockford, Ill.) for 30 min on wet ice. Cell lysates are frozen at −80° C. before testing. The lysates are tested in the Human/Mouse/Rat Phospho-RPS6 ELISA (R&D Systems, Inc. Minn, Minn.). The plate is measured using a microplate reader (SpectraMax M5—Molecular Devices, LLC Sunnyvale, Calif.) set to 450 nm with a wavelength correction of 540. IC50 determination is performed by fitting the curve of inhibitor percent inhibition versus the log of the inhibitor concentration using the GraphPad Prism 5.0 software.
Background: ELISA stands for enzyme-linked immunosorbent assay.

The mark [4] stands for this setting: THP-1 cells, serum starved, 2 h compound, 10 nM MCP-1 for 15 min, phospho-RPS6 ELISA, read-out: PI3Kγ_THP1_RPS6_ELISA IC50.
[5] abbreviates: Homo sapiens, THP-1, THP-1 cells, serum starved, 2 h compound, 10 nM MCP-1 for 15 min, phospho-RPS6 ELISA, read-out: PI3Kγ_THP1_RPS6_ELISA IC50.
Setting [6] is: Homo sapiens, THP-1, read-out: PI3Kγ_THP1_RPS6_ELISA IC50 (nM).

Counter-ions that a name gives are not always drawn. Like-named read-outs stand apart in the source and are kept apart here.

Chain of PI3Kδ (p110δ/p85α) Recombinant Human Protein (O00329 whole entry): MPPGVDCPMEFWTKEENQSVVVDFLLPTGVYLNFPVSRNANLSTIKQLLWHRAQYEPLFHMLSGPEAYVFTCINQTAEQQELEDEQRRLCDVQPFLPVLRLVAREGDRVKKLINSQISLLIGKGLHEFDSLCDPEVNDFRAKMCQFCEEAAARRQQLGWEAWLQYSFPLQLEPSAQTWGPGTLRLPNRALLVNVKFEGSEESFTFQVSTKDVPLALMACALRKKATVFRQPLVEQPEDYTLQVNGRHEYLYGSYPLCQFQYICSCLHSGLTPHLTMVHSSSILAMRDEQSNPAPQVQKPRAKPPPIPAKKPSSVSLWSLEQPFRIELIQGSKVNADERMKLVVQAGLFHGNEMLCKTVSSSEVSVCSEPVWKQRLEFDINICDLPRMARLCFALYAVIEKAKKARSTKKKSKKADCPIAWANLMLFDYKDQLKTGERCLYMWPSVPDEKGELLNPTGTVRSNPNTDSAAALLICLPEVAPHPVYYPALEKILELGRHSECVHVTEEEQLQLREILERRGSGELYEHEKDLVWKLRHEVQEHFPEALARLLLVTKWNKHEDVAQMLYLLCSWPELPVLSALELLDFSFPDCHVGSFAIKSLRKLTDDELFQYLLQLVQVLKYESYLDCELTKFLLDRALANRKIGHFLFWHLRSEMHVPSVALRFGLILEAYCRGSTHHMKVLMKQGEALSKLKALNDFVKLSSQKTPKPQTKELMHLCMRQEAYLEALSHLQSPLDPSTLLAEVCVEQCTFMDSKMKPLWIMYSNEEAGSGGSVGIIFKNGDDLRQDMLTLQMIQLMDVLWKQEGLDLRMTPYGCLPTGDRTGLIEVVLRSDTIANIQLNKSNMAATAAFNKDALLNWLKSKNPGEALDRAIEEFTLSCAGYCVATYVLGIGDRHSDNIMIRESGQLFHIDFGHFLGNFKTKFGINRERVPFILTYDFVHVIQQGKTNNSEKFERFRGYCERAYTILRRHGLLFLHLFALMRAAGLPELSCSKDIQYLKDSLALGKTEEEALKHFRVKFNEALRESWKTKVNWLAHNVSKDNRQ
Chain of PI3Kδ (p110δ/p85α) Recombinant Human Protein (P27986 whole entry partner): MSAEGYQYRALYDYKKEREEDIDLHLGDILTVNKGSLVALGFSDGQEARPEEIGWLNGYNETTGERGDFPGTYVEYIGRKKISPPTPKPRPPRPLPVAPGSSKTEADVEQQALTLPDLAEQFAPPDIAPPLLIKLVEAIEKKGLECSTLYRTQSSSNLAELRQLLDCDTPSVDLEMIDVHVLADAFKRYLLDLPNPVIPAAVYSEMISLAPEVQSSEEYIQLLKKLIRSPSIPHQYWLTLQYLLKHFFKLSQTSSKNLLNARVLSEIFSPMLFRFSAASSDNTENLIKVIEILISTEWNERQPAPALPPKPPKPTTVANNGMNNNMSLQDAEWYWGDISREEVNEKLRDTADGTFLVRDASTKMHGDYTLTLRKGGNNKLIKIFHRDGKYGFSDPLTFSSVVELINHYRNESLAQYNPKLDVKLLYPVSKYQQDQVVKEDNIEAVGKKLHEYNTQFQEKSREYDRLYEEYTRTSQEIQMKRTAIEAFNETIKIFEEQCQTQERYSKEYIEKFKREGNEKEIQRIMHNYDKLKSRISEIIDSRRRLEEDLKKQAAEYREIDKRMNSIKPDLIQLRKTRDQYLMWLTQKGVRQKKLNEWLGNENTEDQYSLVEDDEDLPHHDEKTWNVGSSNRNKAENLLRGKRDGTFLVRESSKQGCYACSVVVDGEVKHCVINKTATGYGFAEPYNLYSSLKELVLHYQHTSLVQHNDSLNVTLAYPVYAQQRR
Chain of PI3Kγ (p110γ) Recombinant Human Protein (P48736 whole entry): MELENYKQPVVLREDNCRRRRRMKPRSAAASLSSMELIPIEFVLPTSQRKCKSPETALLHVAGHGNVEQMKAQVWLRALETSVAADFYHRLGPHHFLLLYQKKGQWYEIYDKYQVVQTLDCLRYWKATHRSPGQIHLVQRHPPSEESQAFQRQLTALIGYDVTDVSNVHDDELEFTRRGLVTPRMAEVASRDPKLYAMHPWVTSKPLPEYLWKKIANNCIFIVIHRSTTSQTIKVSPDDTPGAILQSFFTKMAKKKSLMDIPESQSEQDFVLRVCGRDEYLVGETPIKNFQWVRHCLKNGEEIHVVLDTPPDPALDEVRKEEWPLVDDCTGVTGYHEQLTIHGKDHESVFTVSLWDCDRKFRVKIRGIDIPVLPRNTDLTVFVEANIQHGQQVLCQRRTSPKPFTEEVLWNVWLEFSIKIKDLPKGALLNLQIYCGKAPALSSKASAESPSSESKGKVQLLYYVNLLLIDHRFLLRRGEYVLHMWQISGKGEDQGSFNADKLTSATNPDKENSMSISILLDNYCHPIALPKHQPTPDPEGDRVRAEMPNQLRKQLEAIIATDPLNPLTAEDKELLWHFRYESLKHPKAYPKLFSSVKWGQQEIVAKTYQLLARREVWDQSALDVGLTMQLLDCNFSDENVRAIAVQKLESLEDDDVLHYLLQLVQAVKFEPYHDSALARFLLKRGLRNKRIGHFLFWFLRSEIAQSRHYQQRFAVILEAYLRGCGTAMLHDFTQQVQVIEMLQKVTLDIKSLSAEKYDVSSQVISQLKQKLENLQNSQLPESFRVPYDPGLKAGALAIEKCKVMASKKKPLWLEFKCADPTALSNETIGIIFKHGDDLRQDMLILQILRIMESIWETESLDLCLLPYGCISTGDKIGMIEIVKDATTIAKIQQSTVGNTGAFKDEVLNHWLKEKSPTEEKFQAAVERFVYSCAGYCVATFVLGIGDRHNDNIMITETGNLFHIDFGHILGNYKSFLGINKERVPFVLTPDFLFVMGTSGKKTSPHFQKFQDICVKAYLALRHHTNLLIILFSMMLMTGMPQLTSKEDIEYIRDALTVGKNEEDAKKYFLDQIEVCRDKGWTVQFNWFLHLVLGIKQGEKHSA

Regarding “2-(3-(8-Amino-6-(3-methyl-1H-pyrazol-4-yl)imidazo[1,2-a]pyrazin-3-yl)-4-methylphenyl)-1,1-difluoropropan-2-ol, 1.2TFA [Example 47]”, the IC50 in test [1], in test [2] and in test [3] (setting [4]) was < 100 nM each time. On to `Cc1ccc(C(C)(O)CF)cc1-c1cnc2c(N)nc(C(F)(F)F)cn12` (racemic) [Example 24, 2-(3-(8-Amino-6-(trifluoromethyl)imidazo[1,2-a]pyrazin-3-yl)-4-methylphenyl)-1-fluoropropan-2-ol trifluoroacetate salt], for which the IC50 is < 100 nM in test [1], 500 to 2000 nM in test [2] and 500 to 1000 nM in test [3] (setting [5]). For the compound `Cc1ccc(C(O)(CO)C(F)(F)F)cc1-c1cnc2c(N)nc(-c3cnn(C)c3)cn12` (racemic) [Example 69, 2-(3-(8-Amino-6-(1-methyl-1H-pyrazol-4-yl)imidazo[1,2-a]pyrazin-3-yl)-4-methylphenyl)-3,3,3-trifluoropropane-1,2-diol trifluoroacetate salt], in test [3] (setting [6]), the IC50 is < 100 nM.

With `Cc1ncc(-c2cn3c(-c4cc(C(O)(CO)C(F)(F)F)ccc4C)cnc3c(N)n2)s1` (racemic) [Example 70, 2-(3-(8-Amino-6-(2-methylthiazol-5-yl)imidazo[1,2-a]pyrazin-3-yl)-4-methylphenyl)-3,3,3-trifluoropropane-1,2-diol trifluoroacetate salt], the IC50 in test [3] (setting [6]) is < 100 nM. Same read-out and setting: the same measure for `Cc1ccc(C(O)(CO)C(F)(F)F)cc1-c1cnc2c(N)nc(-c3cnco3)cn12` (racemic) [Example 71, 2-(3-(8-Amino-6-(oxazol-5-yl)imidazo[1,2-a]pyrazin-3-yl)-4-methylphenyl)-3,3,3-trifluoropropane-1,2-diol trifluoroacetate salt]: < 100 nM. As for `Cc1ccc(C(C)(O)C(F)(F)F)cc1-c1cnc2c(N)nc(C(F)(F)F)cn12` (single isomer, unassigned) [Example 5, 2-(3-(8-Amino-6-(trifluoromethyl)imidazo[1,2-a]pyrazin-3-yl)-4-methylphenyl)-1,1,1-trifluoropropan-2-ol], the IC50 in test [1] is < 100 nM; in test [2], 100 to 500 nM; in test [3] (setting [4]), 500 to 1000 nM.

As to `Cc1ccc(C(C)(O)C(F)(F)F)cc1-c1cnc2c(N)nc(C(F)(F)F)cn12` (single isomer, unassigned) [Example 6, 2-(3-(8-Amino-6-(trifluoromethyl)imidazo[1,2-a]pyrazin-3-yl)-4-methylphenyl)-1,1,1-trifluoropropan-2-ol], the IC50 is < 100 nM in test [1], 100 to 500 nM in test [2] and 100 to 500 nM in test [3] (setting [4]). `Cc1ccc(C(O)(C(N)=O)C(F)(F)F)cc1-c1cnc2c(N)nc(C(C)(C)O)cn12` (single isomer, unassigned) [Example 255, 2-(3-(8-Amino-6-(2-hydroxypropan-2-yl)imidazo[1,2-a]pyrazin-3-yl)-4-methylphenyl)-3,3,3-trifluoro-2-hydroxypropanamide trifluoroacetate salt]: in test [3] (setting [5]), the concentration for half-maximal inhibition (IC50) is < 100 nM. On the same count and under the same terms, the same measure for `Cc1ccc(C(O)(C(N)=O)C(F)(F)F)cc1-c1cnc2c(N)nc(C(=O)NC34CCC(O)(CC3)C4)cn12` (single isomer, unassigned) [Example 260, 8-Amino-3-(5-(3-amino-1,1,1-trifluoro-2-hydroxy-3-oxopropan-2-yl)-2-methylphenyl)-N-(4-hydroxybicyclo[2.2.1]heptan-1-yl)imidazo[1,2-a]pyrazine-6-carboxamide trifluoroacetate salt]: 500 to 1000 nM. In the case of `Cc1ccc(C(C)(O)C(F)(F)F)cc1-c1cnc2c(N)nc(CC(=O)N3CCOCC3)cn12` (centres unmarked) [Example 173, 2-(8-amino-3-(2-methyl-5-(1,1,1-trifluoro-2-hydroxypropan-2-yl)phenyl)imidazo[1,2-a]pyrazin-6-yl)-1-morpholinoethanone trifluoroacetate salt], the IC50 in test [1] is 100 to 500 nM; in test [2], 500 to 2000 nM. For `CC(=O)NCC(O)(c1ccc(C)c(-c2cnc3c(N)nc(C(F)(F)F)cn23)c1)C(F)(F)F` (centres unmarked) [Example 211, N-(2-(3-(8-amino-6-(trifluoromethyl)imidazo[1,2-a]pyrazin-3-yl)-4-methylphenyl)-3,3,3-trifluoro-2-hydroxypropyl)acetamide trifluoroacetate], the IC50 in test [1] is < 100 nM; in test [2], 100 to 500 nM.

With `Cc1ccc(C(O)(CNC(=O)c2ccccc2)C(F)(F)F)cc1-c1cnc2c(N)nc(C(F)(F)F)cn12` (centres unmarked) [Example 212, N-(2-(3-(8-amino-6-(trifluoromethyl)imidazo[1,2-a]pyrazin-3-yl)-4-methylphenyl)-3,3,3-trifluoro-2-hydroxypropyl)benzamide trifluoroacetate salt], the IC50 is < 100 nM in test [1] and 100 to 500 nM in test [2]. The like results for `CCNC(=O)c1cn2c(-c3cc(C(O)(CNC(C)=O)C(F)(F)F)ccc3C)cnc2c(N)n1` (centres unmarked) [Example 221, 3-(5-(3-acetamido-1,1,1-trifluoro-2-hydroxypropan-2-yl)-2-methylphenyl)-8-amino-N-ethylimidazo[1,2-a]pyrazine-6-carboxamide trifluoroacetate] were, in that order, < 100 nM and 100 to 500 nM. On the same counts, the results for `Cc1ccc(C(C)(O)C(F)(F)F)cc1-c1cnc2c(N)nc(C(=O)NC34CCN(CC3)C4)cn12` (centres unmarked) [Example 277, 8-Amino-N-(1-azabicyclo[2.2.1]heptan-4-yl)-3-(2-methyl-5-(1,1,1-trifluoro-2-hydroxypropan-2-yl)phenyl)imidazo[1,2-a]pyrazine-6-carboxamide trifluoroacetate salt] are 100 to 500 nM and 100 to 500 nM. The like results for `Cc1ccc(C(C)(O)C(F)(F)F)cc1-c1cnc2c(N)nc(C(=O)NC34COC(CO)(C3)C4)cn12` (centres unmarked) [Example 279, 8-Amino-N-(1-(hydroxymethyl)-2-oxabicyclo[2.1.1]hexan-4-yl)-3-(2-methyl-5-(1,1,1-trifluoro-2-hydroxypropan-2-yl)phenyl)imidazo[1,2-a]pyrazine-6-carboxamide trifluoroacetate salt] were, in that order, < 100 nM and 100 to 500 nM.

By IC50 is commonly meant the midpoint of a concentration-inhibition curve.

Source of the values: patent publication US10738057B2, “Tertiary alcohols as PI3K-γ inhibitors” (Incyte Corporation, priority 2017, dated 2020).
